Measured values taken from patent US5795861A, “Methods for regulating gastrointestinal motility” (Amylin Pharmaceuticals Inc., priority 1995, dated 1998).
No end group written: not given here.

How the values were obtained:
[1] = tested on: anesthetized rats; experiment: perfused exteriorized small bowel, passage of tritium-labelled glucose into plasma; type: in vivo, rat; details: plasma glucose clamped
Description: (§1) After one hour of amylin infusion, a bolus of glucose (lg/kg) was infused either into the stomach or the duodenum through a tube inserted through the esophagus. Because-the studies involved anesthetized rather than conscious rats, they are not considered in analyzing gastric motility, e.g., rate of emptying of stomach contents into the duodenum. However, the studies indicate that absorption of glucose from the duodenum into the blood was not delayed by amylin. […] In anesthetized rats, a segment of small bowel, still connected to the animal via its blood supply, was exteriorized and cannulae inserted so that the small bowel could be perfused with glucosed solutions of controlled composition. The animals were cannulated also via an artery (for blood sampling) and via a vein (for infusion of amylin, insulin and glucose). The lumen was perfused with a tritium-labelled glucose solution. The passage of glucose from the lumen of the gut into the rat was measured by the appearance of the tritium label in the plasma. The supposition that such appearance of tritium in the plasma was indeed measuring glucose uptake from the gut was tested by administration of the glucose transport blocker, phloridzin. […]

[2] = tested on: anesthetized rats; experiment: glucose bolus into stomach or duodenum during amylin infusion; type: in vivo; details: rat amylin 0.35 nm/kg/min infusion
Description: as §1

[3] = tested on: diabetic BB rats; experiment: gastric emptying of Phenol Red methylcellulose gel, diabetic rats; type: in vivo, rat; details: for ED50 for suppression of gastric emptying: diabetic rats fasted 6 hours, s.c. 5 min before gavage
Protocol: When BB rats were confirmed as being diabetic by glycosuria on at least 2 days, they were treated with daily s.c. injections of ultralente recombinant human insulin (Humulin-U, Eli Lilly, Ind.). Insulin therapy was aimed at maintaining glucose but minimizing ketones in the urine, in order to avoid hypoglycemic deaths. In fact, glycosuria was present in 88% of measurements and ketonuria in 52%. The average duration of diabetes was 53±5 days, and daily insulin requirements were 4.7±0.3 units. All animals were housed at 22.7±0.8 C in a 12:12 hour light:dark cycle (experiments being performed during the light cycle) and were fed and watered ad libitum (Diet LM-485, Teklad, Madison, Wis.).
The determination of gastric emptying by the method described below has usually been performed after a fast of ~20 hours to ensure that the stomach contained no chyme that would interfere with spectrophotometric absorbance measurements. However, diabetic rats treated with Ultralente insulin could not be fasted for 20 hours. […] Such animals were therefore. fasted for only 6 hours before measurement of gastric emptying. Non-diabetic rats were deprived of food for either 6 or 20 hours prior to experimentation. We have noted that even non-diabetic BB rats have elevated glycated hemoglobin concentrations, possibly indicating subclinical insulitis. Both non-diabetic Harlan Sprague Dawley rats and non-diabetic BB rats animals were therefore used in comparisons with diabetic rats. Thus there were 5 treatment groups:
Twenty minutes after gavage, rats were anesthetized using 5% halothane, the stomach exposed and clamped at the pyloric and lower esophageal sphincters using artery forceps, removed and opened into an alkaline solution which was made up to a fixed volume. Stomach content was derived from the intensity of the phenol red in the alkaline solution, measured by absorbance at a wavelength of 560 nm. In most experiments, the stomach was clear. In other experiments, particulate gastric contents were centrifuged to clear the solution for absorbance measurements. Where the diluted gastric contents remained turbid, the spectroscopic absorbance due to Phenol Red was derived as the difference between that present in alkaline vs acidified diluent. In separate experiments on 7 rats, the stomach and small intestine were both excised and opened into an alkaline solution. The quantity of phenol red that could be recovered from the upper gastrointestinal tract within 20 minutes of gavage was 89±4%. To account for a maximal dye recovery of less than 100%, stomach contents remaining after 20 min were expressed as a fraction of the gastric contents recovered from control rats sacrificed immediately after gavage in the same experiment. […]

[4] = plasma amylin concentration after subcutaneous rat amylin (immuno-enzymometric assay); type: in vivo; details: sc
Protocol: The plasma from 250 μL samples collected at 10 min intervals was separated and frozen at -20° C. for analysis by a 2-site immuno-enzymometric assay developed in-house.
To perform the immunoassay, black microtiter plates (Dynatech, Chantilly, Va.) were coated with the antibody F024-4.4 [Phelps J L, Blase E, Koda J E, unpublished] by overnight incubation at 4° C. with 20 ug antibody per mL in 50 mM carbonate at pH 9.6. Plates were washed with 0.05M Tris/0.15M sodium chloride/0.02% sodium azide/0.1% Tween 20 (TBS/Tween), and blocked with 1.0% nonfat dry milk powder in the same carbonate buffer for one hour at room temperature. Samples were thawed on ice, and diluted in 4% BSA/200mg/dl bovine cholesterol supertrate (Miles Pentex reagents, Miles Laboratories, Kankakee Ill.) if necessary. Samples or standards were added to the coated and blocked plates and incubated for one hour at room temperature. After washing, the F025-27 detection antibody conjugated to alkaline phosphatase was added. Antibody-enzyme coupling was performed using the maleimide alkaline phosphatase conjugation kit from Pierce Immunochemical Co (Rockford Ill.). The conjugate was incubated for three hours at room temperature, after which plates were washed thoroughly with Tris buffered saline. Bound enzyme was detected by incubation of the plates with the fluorescent substrate 4-methylumbelliferyl phosphate at 50 ug/ml in 1M diethanolamine/0.5 mM MgCl, pH 9.8 for 40 minutes at room temperature. The fluorescent signal was measured with a Dynatech Microfluor plate reader, and data analyzed on Multicalc software (Wallac, Gaithersburg Md.). […] When performed in this manner, the assay has a minimum detectable concentration of 2 pM.

[5] = tested on: non-diabetic Harlan Sprague Dawley rats; experiment: gastric emptying of Phenol Red methylcellulose gel, normal rats; type: in vivo, rat; details: for ED50, suppression of gastric emptying: normal rats fasted 20 hours, s.c. 5 min before gavage
Description: Twenty minutes after gavage, rats were anesthetized using 5% halothane, the stomach exposed and clamped at the pyloric and lower esophageal sphincters using artery forceps, removed and opened into an alkaline solution which was made up to a fixed volume. Stomach content was derived from the intensity of the phenol red in the alkaline solution, measured by absorbance at a wavelength of 560 nm. In most experiments, the stomach was clear. In other experiments, particulate gastric contents were centrifuged to clear the solution for absorbance measurements. Where the diluted gastric contents remained turbid, the spectroscopic absorbance due to Phenol Red was derived as the difference between that present in alkaline vs acidified diluent. In separate experiments on 7 rats, the stomach and small intestine were both excised and opened into an alkaline solution. The quantity of phenol red that could be recovered from the upper gastrointestinal tract within 20 minutes of gavage was 89±4%. To account for a maximal dye recovery of less than 100%, stomach contents remaining after 20 min were expressed as a fraction of the gastric contents recovered from control rats sacrificed immediately after gavage in the same experiment.
Since ED50 is log-normally distributed, it is expressed i standard error of the logarithm. Pairwise comparisons were performed using one-way analysis of variance and the Student-Newman-Keuls multiple comparisons test (Instat v2.0, GraphPad Software, San Diego) using P<0.05 as the level of significance.

[6] = tested on: rats, rabbits, humans with Paget's disease; details: cited from earlier work
[7] = tested on: Mongrel dogs; experiment: oral glucose tolerance test in dogs during amylin ± AC-0253 infusion; type: in vivo; details: for effects on plasma lactate: oral glucose load
Protocol: Mongrel dogs (9 males, 12-17 kg wt. range) were used for this study. All animals were fasted overnight prior to each study. Each animal served as its own control for all protocols. Animals were equilibrated for 30-60 minutes prior to the start of each protocol.
25% glucose (1 gm/kg) was administered by mouth at t=0 minutes. […] Samples for insulin, glucose and lactate were obtained at 15 minute intervals from t=-45 to t=180 minutes.

[8] = tested on: intact rats; details: given subcutaneously, no disturbance of blood pressure
[9] = tested on: fed rats; details: preinfusion of antagonist; cited from earlier work
[10] = tested on: corpulent LA/N rats; experiment: uptake of ingested labelled glucose load after amylin antagonist preinjection; type: in vivo, rat; details: for acceleration of appearance of glucose-derived tritium in the plasma: 3 μg s.c. 3 minutes before gavage
Protocol: Uptake of an ingested labelled glucose load was measured in 11 conscious 24-hr fasted corpulent (500-600 g) LA/N rats on 2 occasions, 14 days apart.

[11] = tested on: motility of the gastro-intestinal tract; details: 0.2 to 2 mgs intravenously; cited from earlier work

For `O=C(CCc1ccc(O)cc1)c1c(O)cc(O)cc1O[C@@H]1O[C@H](CO)[C@@H](O)[C@H](O)[C@H]1O` [Phloridzin, reference compound], the “passage of tritium-labelled glucose from the gut lumen into the plasma” value [1] was “largely prevented the transit of label from the gut lumen into the plasma”.

For `CC(C)C[C@H](NC(=O)[C@H](CC(N)=O)NC(=O)[C@H](CC(N)=O)NC(=O)[C@H](CO)NC(=O)[C@H](CO)NC(=O)[C@H](CCCNC(=N)N)NC(=O)[C@@H](NC(=O)[C@H](CC(C)C)NC(=O)[C@H](Cc1ccccc1)NC(=O)[C@H](CC(N)=O)NC(=O)[C@H](C)NC(=O)[C@H](CC(C)C)NC(=O)[C@H](CCCNC(=N)N)NC(=O)[C@H](CCC(N)=O)NC(=O)[C@@H](NC(=O)[C@H](C)NC(=O)[C@@H]1CSSC[C@H](NC(=O)[C@@H](N)CCCCN)C(=O)N[C@@H](CC(N)=O)C(=O)N[C@@H]([C@@H](C)O)C(=O)N[C@@H](C)C(=O)N[C@@H]([C@@H](C)O)C(=O)N1)[C@@H](C)O)C(C)C)C(=O)NCC(=O)N1CCC[C@H]1C(=O)N[C@H](C(=O)N[C@@H](CC(C)C)C(=O)N1CCC[C@H]1C(=O)N1CCC[C@H]1C(=O)N[C@H](C(=O)N[C@@H](CC(N)=O)C(=O)N[C@H](C(=O)NCC(=O)N[C@@H](CO)C(=O)N[C@@H](CC(N)=O)C(=O)N[C@H](C(=O)N[C@@H](Cc1ccc(O)cc1)C(N)=O)[C@@H](C)O)C(C)C)[C@@H](C)O)C(C)C` [amylin], the “absorption of glucose from the duodenum into the blood” value [2] was “not delayed”, the “dose that would restore gastric emptying to the rate of normal rats not administered amylin” value ([3]; diabetic rat, estimated from fitted curves of FIG. 14) was ~ 2 μg and the “ED50 of inhibition of gastric emptying (summary statement)” value ([3]; diabetic rats) was ~ 1 μg. The “ED50 for suppression of gastric emptying” value [3] was 2.3 nmol/kg, the “ED50 for suppression of gastric emptying” value ([3]; ±0.18 log units) was 2.2 µg and the “passage of tritium-labelled glucose from the gut lumen into the plasma” value [1] was “had no effect”. It also gave a level at time molar at 10 min ([4]; 1 ug, 1 μg s.c.) of 0.066 ± 0.01 nM, a level at time molar at 10 min ([4]; 10 ug, 10 μg s.c. bolus) of 0.347 ± 0.043 nM and a level at time molar at 20 min ([4]; 10 ug, 10 μg s.c. bolus, 20 min) of 0.301 ± 0.057 nM. For the same molecule, the “ED50 of inhibition of gastric emptying (summary statement)” value ([5]; normal rats) was ~ 1 μg, the “ED50, suppression of gastric emptying” value [5] was 0.60 nmole amylin/kg body weight and the “ED50, suppression of gastric emptying” value ([5]; ±0.19 log units) was 0.43 µg. The “lowering of plasma calcium” value [6] was “up to 20%”, the “rate of rise and peak of plasma glucose after oral glucose load” value ([7]; amylin infusion 50, 100 and 300 pmol/kg/min, 25% glucose 1 gm/kg by mouth) was “reduced both the rate of rise in plasma glucose as well as the peak plasma glucose” and the “effects on plasma lactate” value [7] was “unremarkable”. For the same molecule, the plasma renin activity [8] was “markedly increases”.

For “^8-37 hCGRP: demonstrated amylin blocker in vitro and in vivo; also an effective CGRP antagonist (VTHRLAGLLSRSGGVVKNFVPTNVGSKAF)”, the “glucose concentration following arginine infusion” value [9] is listed as “subsequent fall in glucose concentration to well below the basal level” and the “insulin concentration 30 minutes following the arginine infusion vs normal controls” value [9] is listed as “almost twice as high”.

With “acetyl-^10 Asn^32 Tyr^8-32 salmon calcitonin (Ac-VLNKLSQELHKLQTYPRTNTGSGTY; ends and bridges not checked) [AC-0187]” the “plasma glucose 60 minutes after glucose gavage” value ([10]; 3 μg s.c.) was 6.89 ± 0.28 mM, the “acceleration of appearance of glucose-derived tritium in the plasma” value ([10]; 15 minutes post-gavage) was 48% and the “acceleration of appearance of glucose-derived tritium in the plasma” value ([10]; 30 minutes post-gavage) was 45%. The “plasma glucose 15 minutes after gavage” value ([10]; 3 μg s.c., gavage with 0.5 g glucose) was 8.33 ± 0.28 mM and the “plasma glucose before gavage” value ([10]; 3 μg s.c., starting value) was 5.89 ± 0.17 mM.

In the case of “acetyl-^11,18 Arg, ^30 Arg, ^32 Tyr-^9-32 calcitonin (salmon) [AC-0253]”, the “changes in plasma glucose, antagonist alone” value ([7]; AC-0253 alone) is reported as “has no effect”, the “reversal of amylin-induced changes in plasma glucose” value ([7]; AC-0253 up to 1500 pmol/kg/min with amylin 50 pmol/kg/min) is reported as “does not completely reverse the effects of amylin” and the “effects on plasma lactate” value [7] is reported as “unremarkable”.

For “glucagon: polypeptide hormone produced by the alpha cells of the pancreatic islets; administered as glucagon hydrochloride”, the onset of effect [11] is given as “within one minute”.
